Like-named read-outs stand apart in the source and are kept apart here.
Experiments:
Aurora-A = target: T1, Aurora-A (Homo sapiens, UniProt O14965); assay: Flashplate Aurora A enzyme inhibition assay; assay type: biochemical
T1 sequence (O14965 1-403): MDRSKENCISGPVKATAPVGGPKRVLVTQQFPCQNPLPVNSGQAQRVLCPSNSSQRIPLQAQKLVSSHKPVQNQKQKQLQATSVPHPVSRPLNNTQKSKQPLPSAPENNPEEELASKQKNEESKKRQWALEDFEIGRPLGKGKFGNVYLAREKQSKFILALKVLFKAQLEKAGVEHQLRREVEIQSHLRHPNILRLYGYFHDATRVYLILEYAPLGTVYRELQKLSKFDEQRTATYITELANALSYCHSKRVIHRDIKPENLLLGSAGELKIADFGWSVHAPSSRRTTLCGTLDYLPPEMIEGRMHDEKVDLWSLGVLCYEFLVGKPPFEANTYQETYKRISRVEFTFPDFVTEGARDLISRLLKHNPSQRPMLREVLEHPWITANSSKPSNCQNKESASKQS
Procedure, shortened: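 This is a radiometric Flashplate format: plates were precoated with DTT, and compound (in 2% DMSO) was mixed with kinase buffer (pH 7.5 Tris, MgCl2, NaCl) containing 1 mM MBP, 20 μM ATP and ^33P-ATP. The reaction was started with 250 ng Aurora-A per well and incubated 2 h at RT. It was then stopped by 10 mM sodium pyrophosphate washing, and plates were scintillation-counted.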

HCT116 cells = assay: Cell viability assay (MTT) in HCT116 cell line; assay type: cell-based; settings: Homo sapiens, HCT-116, 72 hrs, IC50 range, read-out: HCT116 cell growth inhibition
Procedure, shortened: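 MTT read-out (4 hrs, 37 °C, DMSO extraction) following 72 hrs of treatment with 0-50 μM Aurora inhibitor. HCT116 cells were plated a day earlier and tested in triplicate; IC50 derived from the curve.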

[1] = Flashplate assay, IC50 range, read-out: Aurora-A inhibition

Row | IC50 (Aurora-A; [1]) [nM] | IC50 (HCT116 cells) [nM] | Structure (SMILES) | IC50 (Aurora-A; read-out: Aurora-A inhibition) [nM] | IC50 (Aurora-A) [nM]
1 | < 500 | < 500 | Cc1nc(CN2CCN(c3c(Br)cnc4[nH]c(-c5ccc(CN6CCNCC6)cc5)nc34)CC2)cs1 [Example 164, 4-((4-(6-Bromo-2-(4-(piperazin-1-ylmethyl)phenyl)-3H-imidazo[4,5-b]pyridin-7-yl)piperazin-1-yl)methyl)-2-methylthiazole] |  | 
2 | < 500 | < 500 | Clc1ccc(CN2CCN(c3c(Br)cnc4[nH]c(-c5ccc(Cn6cccn6)cc5)nc34)CC2)cc1 [Example 85, 2-(4-((1H-Pyrazol-1-yl)methyl)phenyl)-6-bromo-7-(4-(4-chlorobenzyl)piperazin-1-yl)-3H-imidazo[4,5-b]pyridine] |  | 
3 | < 500 | 500 to 2000 | Cc1nc(CN2CCN(c3c(Br)cnc4[nH]c(-c5ccc(N6CCOCC6)cc5)nc34)CC2)cs1 [Example 159, 4-(4-(6-Bromo-7-(4-((2-methylthiazol-4-yl)methyl)piperazin-1-yl)-3H-imidazo[4,5-b]pyridin-2-yl)phenyl)morpholine] |  | 
4 | < 500 | < 500 | Brc1cnc2[nH]c(-c3cccc(CN4CCOCC4)c3)nc2c1N1CCN(Cc2cccnc2)CC1 [Example 66, 6-Bromo-2-(3-morpholin-4-ylmethyl-phenyl)-7-(4-pyridin-3-ylmethyl-piperazin-1-yl)-3H-imidazo[4,5-b]pyridine] |  | 
5 | < 500 | 500 to 2000 | CC(c1ccncc1)N1CCN(c2c(Br)cnc3[nH]c(-c4ccc(N5CCOCC5)cc4)nc23)CC1 (centres unmarked) [Example 130, 4-(4-(6-Bromo-7-(4-(1-(pyridin-4-yl)ethyl)piperazin-1-yl)-3H-imidazo[4,5-b]pyridin-2-yl)phenyl)morpholine] |  | 
6 | < 500 | 500 to 2000 | NCc1ccc(-c2nc3c(N4CCC(Cc5ccccc5)CC4)c(Br)cnc3[nH]2)cc1 [Example 133, (4-(7-(4-Benzylpiperidin-1-yl)-6-bromo-3H-imidazo[4,5-b]pyridin-2-yl)phenyl)methanamine] |  | 
7 | < 500 | 500 to 2000 | NCc1ccc(-c2nc3c(N4CCN(Cc5cccnc5)CC4)c(Br)cnc3[nH]2)cc1 [Example 60, (4-(6-Bromo-7-(4-(pyridin-3-ylmethyl)piperazin-1-yl)-3H-imidazo[4,5-b]pyridin-2-yl)phenyl)methanamine] |  | 
8 | < 500 | 500 to 2000 | Cn1cncc1CN1CCN(c2c(Br)cnc3[nH]c(-c4ccc(CN5CCOCC5)cc4)nc23)CC1 [Example 169, 4-(4-(6-Bromo-7-(4-((1-methyl-1H-imidazol-5-yl)methyl)piperazin-1-yl)-3H-imidazo[4,5-b]pyridin-2-yl)benzyl)morpholine] |  | 
9 | < 500 | 500 to 2000 | COc1ccc(-c2nc3c(N4CCN(CC(=O)Nc5cc(C)no5)CC4)c(Cl)cnc3[nH]2)cc1 [Example 64, 2-(4-(6-Chloro-2-(4-methoxyphenyl)-3H-imidazo[4,5-b]pyridin-7-yl)piperazin-1-yl)-N-(3-methylisoxazol-5-yl)acetamide] |  | 
10 | < 500 | 2000 to 50000 | CC(C)(C)OC(=O)NCc1ccc(-c2nc3c(N4CCN(Cc5cccnc5)CC4)c(Br)cnc3[nH]2)cc1 [Example 59, tert-Butyl 4-(6-bromo-7-(4-(pyridin-3-ylmethyl)piperazin-1-yl)-3H-imidazo[4,5-b]pyridin-2-yl)benzylcarbamate] |  | 
11 | < 500 | 500 to 2000 | Clc1cnc2[nH]c(-c3ccc(Cn4cccn4)cc3)nc2c1N1CCN(Cc2cccnc2)CC1 [Example 138, 2-(4-((1H-Pyrazol-1-yl)methyl)phenyl)-6-chloro-7-(4-(pyridin-3-ylmethyl)piperazin-1-yl)-3H-imidazo[4,5-b]pyridine] |  | 
12 | < 500 | < 500 | Cc1noc(C)c1CN1CCN(c2c(Br)cnc3[nH]c(-c4ccc(CN5CCOCC5)cc4)nc23)CC1 [Example 128, 4-(4-(6-Bromo-7-(4-((3,5-dimethylisoxazol-4-yl)methyl)piperazin-1-yl)-3H-imidazo[4,5-b]pyridin-2-yl)benzyl)morpholine] |  | 
13 | < 500 | < 500 | Cc1nc(CN2CCN(c3c(Cl)cnc4[nH]c(-c5ccc(Cn6cccn6)cc5)nc34)CC2)cs1 [Example 173, 4-((4-(2-(4-((1H-Pyrazol-1-yl)methyl)phenyl)-6-chloro-3H-imidazo[4,5-b]pyridin-7-yl)piperazin-1-yl)methyl)-2-methylthiazole] |  | 
14 | < 500 | 2000 to 50000 | Cc1nc(CN2CCN(c3c(Br)cnc4[nH]c(-c5ccc(-n6cccn6)cc5)nc34)CC2)cs1 [Example 161, 4-((4-(2-(4-(1H-Pyrazol-1-yl)phenyl)-6-bromo-3H-imidazo[4,5-b]pyridin-7-yl)piperazin-1-yl)methyl)-2-methylthiazole] |  | 
15 | < 500 | 500 to 2000 | O=C(CN1CCN(c2c(Cl)cnc3[nH]c(-c4ccc5c(c4)OCCO5)nc23)CC1)Nc1nccs1 [Example 87, 2-{4-[6-Chloro-2-(2,3-dihydro-benzo[1,4]dioxin-6-yl)-3H-imidazo[4,5-b]pyridin-7-yl]-piperazin-1-yl}-N-thiazol-2-yl-acetamide] |  | 

Further lines, the molecule ahead of its results:

Row | Structure (SMILES) | IC50 (Aurora-A; [1]) [nM] | IC50 (HCT116 cells) [nM] | IC50 (Aurora-A; read-out: Aurora-A inhibition) [nM] | IC50 (Aurora-A) [nM]
16 | CC(c1ccccc1)N1CCN(c2c(Cl)cnc3[nH]c(-c4ccc(N(C)C)cc4)nc23)CC1 (centres unmarked) [Example 17, 4-(6-chloro-7-(4-(1-phenylethyl)piperazin-1-yl)-3H-imidazo[4,5-b]pyridin-2-yl)-N,N-dimethylaniline] | < 500 | 500 to 2000 |  | 
17 | CC(C)(C)OC(=O)NCc1ccc(-c2nc3c(N4CCC(Oc5ccccc5)CC4)c(Br)cnc3[nH]2)cc1 [Example 134, tert-Butyl 4-(6-bromo-7-(4-phenoxypiperidin-1-yl)-3H-imidazo[4,5-b]pyridin-2-yl)benzylcarbamate] | < 500 | < 500 |  | 
18 | CN(C)c1ccc(-c2nc3c(N4CCC(CC(=O)Nc5nccs5)CC4)c(Br)cnc3[nH]2)cc1 [Example 90, 2-{1-[6-Bromo-2-(4-dimethylamino-phenyl)-3H-imidazo[4,5-b]pyridin-7-yl]-piperidin-4-yl}-N-thiazol-2-yl-acetamide] | < 500 | 500 to 2000 |  | 
19 | Cc1nn(C)c(C)c1-c1nc2c(N3CCN(Cc4cccnc4)CC3)c(Br)cnc2[nH]1 [Example 57, 6-Bromo-7-(4-(pyridin-3-ylmethyl)piperazin-1-yl)-2-(1,3,5-trimethyl-1H-pyrazol-4-yl)-3H-imidazo[4,5-b]pyridine] | < 500 | 2000 to 50000 |  | 
20 | COc1cccc(-c2nc3c(N4CCN(CC(=O)Nc5nccs5)CC4)c(Br)cnc3[nH]2)c1 [Example 29] | < 500 | 500 to 2000 |  | 
21 | COc1ccc(-c2nc3c(N4CCN(Cc5cscn5)CC4)c(Br)cnc3[nH]2)cc1 [Example 154, 4-((4-(6-Bromo-2-(4-methoxyphenyl)-3H-imidazo[4,5-b]pyridin-7-yl)piperazin-1-yl)methyl)thiazole] |  | < 500 | < 500 | 
22 | CN(C)c1ccc(-c2nc3c(N4CCN(CCc5ccccc5)CC4)c(Cl)cnc3[nH]2)cc1 [Example 176, 4-(6-Chloro-7-(4-phenethylpiperazin-1-yl)-3H-imidazo[4,5-b]pyridin-2-yl)-N,N-dimethylaniline] | 500 to 2000 | 2000 to 50000 |  | 
23 | NCc1cccc(-c2nc3c(N4CCN(CC(=O)Nc5nccs5)CC4)c(Br)cnc3[nH]2)c1 [Example 12, 2-{4-[2-(3-Aminomethyl-phenyl)-6-bromo-3H-imidazo[4,5-b]pyridin-7-yl]-piperazin-1-yl}-N-thiazol-2-yl-acetamide] | < 500 | 2000 to 50000 |  | 
24 | CN(C)c1ccc(-c2nc3c(N4CCN(Cc5cccnc5)CC4)c(Br)cnc3[nH]2)cc1 [Example 27, 4-(6-Bromo-7-(4-(pyridin-3-ylmethyl)piperazin-1-yl)-3H-imidazo[4,5-b]pyridin-2-yl)-N,N-dimethylaniline] | < 500 | 500 to 2000 |  | 
25 | CC(c1ccccn1)N1CCN(c2c(Br)cnc3[nH]c(-c4ccc(N(C)C)cc4)nc23)CC1 (centres unmarked) [Example 50, 4-(6-Bromo-7-(4-(1-(pyridin-2-yl)ethyl)piperazin-1-yl)-3H-imidazo[4,5-b]pyridin-2-yl)-N,N-dimethylaniline] | < 500 | 500 to 2000 |  | 
26 | CC(C)CN1CCN(c2c(Br)cnc3[nH]c(-c4ccc(N(C)C)cc4)nc23)CC1 [Example 32, 4-(6-Bromo-7-(4-isobutylpiperazin-1-yl)-3H-imidazo[4,5-b]pyridin-2-yl)-N,N-dimethylaniline] |  | 500 to 2000 |  | < 500
27 | COc1ccc(-c2nc3c(N4CCN(Cc5cncs5)CC4)c(Br)cnc3[nH]2)cc1 [Example 170, 5-((4-(6-Bromo-2-(4-methoxyphenyl)-3H-imidazo[4,5-b]pyridin-7-yl)piperazin-1-yl)methyl)thiazole] | < 500 | 500 to 2000 |  | 
28 | CCN1CCN(c2c(Cl)cnc3[nH]c(-c4ccc(Cn5cccn5)cc4)nc23)CC1 [Example 143, 2-(4-((1H-pyrazol-1-yl)methyl)phenyl)-6-chloro-7-(4-ethylpiperazin-1-yl)-3H-imidazo[4,5-b]pyridine] | < 500 | < 500 |  | 

From patent publication US8088761B2, “Enzyme inhibitors” (Cancer Research Technology Limited, priority 2005, dated 2012)
